Experimental findings from article PMC9519396, “First thermostable CLIP-tag by rational design applied to an archaeal O^6-alkyl-guanine-DNA-alkyl-transferase” (Computational and Structural Biotechnology Journal, 2022) are described below.

The target of this experiment is T1, SsOGT-MC^8 (Saccharolobus solfataricus, UniProt Q97VW7, G105N/G130P/K110E/M106T/R102A/S100A/S109D/S132L).
T1 construct: gene ogt; TSCLIP; synthetic gene with eight substitutions, Y90 kept; His6-tag, pHTP1, E. coli BL21 Rosetta2 (DE3), Ni-NTA purified; 8AES holds no ligand
T1 sequence (Q97VW7 1-151 S100A/R102A/G105N/M106T/S109D/K110E/G130P/S132L): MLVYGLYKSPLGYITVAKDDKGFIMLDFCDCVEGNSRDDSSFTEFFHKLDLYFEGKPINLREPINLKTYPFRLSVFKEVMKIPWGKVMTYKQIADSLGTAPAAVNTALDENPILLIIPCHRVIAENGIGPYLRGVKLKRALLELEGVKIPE
Nature of the experiment: competitive labelling with BC-TMR, SDS-PAGE fluorescence gel imaging. In kind it is biochemical. An excerpt: competitive labelling with BC-TMR, SDS-PAGE fluorescence gel imaging on SsOGT-MC^8

For the compound `[N-]=[N+]=NCCCCCC(=O)NCc1ccc(COc2nccc(N)n2)cc1` [BC-2], the IC50 is 128 ± 31.1 µM.
